Data as given in PMC5662717, “Angiotensin II-derived constrained peptides with antiplasmodial activity and suppressed vasoconstriction” (Scientific Reports, 2017).
Where a SMILES comes first, the peptide text is derived from it. Bridges are numbered along the chain shown (N, C = ends). Where no end group is shown, it is not given here.

How the values were obtained:
[1] = test system: Plasmodium gallinaceum sporozoites; test: Effect of peptides on salivary gland-derived sporozoites (membrane permeability, propidium iodide fluorescence microscopy); assay type: cell-based; settings: digitonin 40 μmol L–1 in PBS
Description: The effect of the peptides on sporozoites was determined in vitro by fluorescence microscopy. Briefly, the parasites were incubated for one hour in the presence of each peptide and the fluorophore propidium iodide, which stains dead and dying cells. The results are reported as the percent of fluorescent (i.e., inactivated) sporozoites. The analyses were carried out in triplicate, using three different mosquito batches (n = 9).
Aedes aegypti RED strain was used in experiments due to their hypersensitivity to P. gallinaceum parasite. Mosquitoes were reared using standard laboratory procedures. An aliquot of frozen chicken blood infected with the P. gallinaceum strain 8 A was obtained from A Krettli (René Rachou Institute of Research, FIOCRUZ, MG, Brazil). […]
Nine thousand P. gallinaceum mature sporozoites were pulled from the salivary glands of A. aegypti and incubated in 50 μL of PBS solution, with 40 μmol L^–1 digitonin (positive control), 60 μmol L^–1 peptides or negative control (PBS solution), at 37 °C for one hour. Cell membrane integrity was then observed using a Carl Zeiss inverted fluorescence microscope (model Observer Axio Vision A.1) coupled to an image capture Zeiss AxioCam HR digital camera (1,300 × 1,030 pixels resolution and 8-bit quantization) after addition of 1 μL of the propidium iodide aqueous solution (200 μmol L^–1) in 5 μL of total solution volume. […]

human red blood cells = assay type: cell-based; settings: for Hemolysis of red blood cells: red cells of human, 24 h, 1e-8 mol L^−1
Description: Assessing toxicity is a key requirement for translating novel compounds into the clinic. Therefore, we evaluated the hemolytic activity of Ang II peptide derivatives 1 and 2 towards erythrocyte human cells. Erythrocytes were seeded in 96-well plates in the absence (negative control) or presence of 10^−8 mol L^−1 of the analogs, as described in the Methods Section.
Figure 3 Hemolytic assay of human red blood cells. Red blood cells were treated with distilled water which causes lysis of red blood cells; uninfected erythrocytes were kept in the same conditions used in the invasion assay with a control and each peptide tested (10^−8 mol L^−1), at 37 °C for 24 h. After incubation, the supernatant was collected, clarified at 900 g/8 min and the hemoglobin content was detected in a spectrophotometer at […]. **** denotes statistical significance of group compared with distilled water value p < 0.05.
The hemolytic effect of analogs 1 and 2 was determined in uninfected erythrocytes. Cells were maintained in the same culture conditions in the presence of 10^−8 mol L^−1 of peptides for 24 h. Erythrocytes were centrifuged at 900 g for 8 min. The free hemoglobin in the supernatant was monitored by spectrophotometer at 550 nm. Untreated cells were used as negative control to rule out nonspecific hemolysis. The hemolytic activity was expressed as a percentage of the control. This positive control (100% hemolysis) was prepared by treating the erythrocytes with distilled water.

stomach fundus = test system: stomach fundus; parameters: species or system C57BL/6 J mice; settings: pH 7.4
Description: The bioassay experiment was carried out in duplicate and generated equivalent results. Experiments were carried out using C57BL/6 J mice from the Centro de Desenvolvimento de Modelos Experimentais da Universidade Federal de São Paulo (CEDEME-UNIFESP).
Stomach fundus was isolated from each mouse, divided into two strips along the longitudinal muscle, and mounted into 5 mL organ baths containing modified Krebs-Ringer solution [144 mmol L^–1 NaCl, 5 mmol L^–1 KCl, 1.1 mmol L^–1 MgSO4, 25 mmol L^–1 NaHCO3, 1.1 mmol L^–1 NaH2PO4, 1.25 mmol L^–1 CaCl2, and 5.5 mmol L^–1 glucose at 37 °C (pH 7.4)] and were continuously carboxygenated (95% O2/5% CO2)[29]. Contractile responses to the stimulations with Ang II and analogs 1 and 2 (10^–8 mol L^–1) were measured with a TRI201 tension transducer (PanLab) through an amplifier (Powerlab 4/30). Data were collected through Labchart Pro V7 software. The resting tension was maintained at 0.5 g and the tissues were left to equilibrate for 90 min. The bath solution was frequently changed. The maximal effect was obtained by comparing contractile responses induced by carbachol (10^–8 mol L^–1).

Plasmodium falciparum [2] = test: Erythrocytic invasion assay (new ring formation) and IC50 determination; assay type: cell-based; settings: 10^−8 mol L^−1 peptide, 24 h, W2 strain, 2–3% parasitemia, 5% hematocrit; reduction versus untreated control, normalized
Description: The effect of peptides in the P. falciparum erythrocytic cycle was assayed in vitro against a synchronized culture in the schizont form of P. falciparum, maintaining 5% hematocrit and 2% parasitemia. Twenty-four hours after treatment, all peptides reduced new ring formation within erythrocytes at 10^−8 mol L^−1, which was described by Saraiva et al. as the ideal concentration for these inhibition assays. The tests were carried out in duplicate and a total of ten experiments were performed (n = 10). Data were normalized due to differences between controls from each assay. It was observed that three analogs reduced the number of rings formed in the blood stage, but only analogs 1 and 2 presented inhibition >40%, when compared to the untreated controls (Fig. 2B).
The erythrocytic cycle of Plasmodium falciparum was maintained in vitro by culturing W2 strains in 1640 medium, supplemented with A-type human blood and serum, as described by Saraiva et al.[15] […]
To synchronize the parasite cultures into the ring stage, we used a sorbitol solution (5%) according to Lambros and Vanderberg[28]. […] Invasion was evaluated by the appearance of new ring forms. The invasion percentage was determined by optical microscopy (1000x magnification), which represents the total number of cells infected by rings in 100 erythrocytes in at least ten random microscopic fields. […]

[3] = test system: Plasmodium gallinaceum sporozoites; settings: cited from earlier work; for Antiplasmodial activity against P. gallinaceum sporozoites, linear peptides: ref 12 (Silva et al.)
Text: Silva et al.[12], tested several linear Ang II derivative peptides in vitro using both the P. gallinaceum sporozoite and the P. falciparum blood stage models. Two short peptides presented high antiplasmodial activity: YHPF and VIPF presented 89% and 94% activity against P. gallinaceum, respectively, and ~50% activity against erythrocyte invasion by P. falciparum. […] Analog 4 was designed via the removal of these two residues. Silva et al., studied linear peptides and observed that peptide DRVYHIPF had potent biological activity (94% against P. gallinaceum sporozoites). The sequence of peptide 1 is similar to that of Ang II, whereas peptide 2 presents a sequence that resembles Ang II with modifications in His and Ile residues (DRVYHIPF). Peptide 4, on the other hand, lacks Ile and His amino acid residues within its backbone. […] Peptide sequence CDRVCYIHPF[7] presented 76% (±3) antiplasmodial activity vs sporozoites of P. gallinaceum. Silva et al., studied different linear Ang II derivative peptides[12] and observed that when His and Ile residues are inverted, the antiplasmodial activity increased cf. peptides with the native primary sequence. To verify this observation, here we inverted the position of Ile and His residues in peptide 3. The resulting peptide presented increased antiplasmodial ...

Plasmodium falciparum [4] = settings: ref 12 (Silva et al.); cited from earlier work
Text: Table 1 Design of angiotensin II-derived synthetic peptides. Purity of peptides determined by LC/MS is shown, along with their respective antiplasmodial activity and design rationale. | column: Antiplasmodial activity vs P. falciparum (new ring formation%) || Silva et al.[12], tested several linear Ang II derivative peptides in vitro using both the P. gallinaceum sporozoite and the P. falciparum blood stage models. Two short peptides presented high antiplasmodial activity: YHPF and VIPF presented 89% and 94% activity against P. gallinaceum, respectively, and ~50% activity against erythrocyte invasion by P. falciparum. […] The authors observed that Ang II reduced by 47% reinfection caused by ring forms. Silva and colleagues tested linear Ang II derivatives using the same model and observed that two short peptides were capable of reducing parasite reinfection >50%[12]. In this work, we tested designer peptides using the P. falciparum erythrocytic cycle and observed that two peptides (1 and 2) were able to reduce ... || (+ 1 further places)

Plasmodium = settings: cited from earlier work; for Biological activity (antiplasmodial): ref 4 (Maciel et al.); for Antiplasmodial activity relative to Ang II (in words): lactam bridge analogs, ref 6 (Torres et al.)
Text: Three of these analogs (i.e., EDRKVYI ...

C[C@@H]1CC[C@@]2(OC1)O[C@H]1[C@@H](O)[C@H]3[C@@H]4CC[C@H]5C[C@@H](O[C@@H]6O[C@H](CO)[C@H](O[C@@H]7O[C@H](CO)[C@@H](O)[C@H](O[C@@H]8OC[C@@H](O)[C@H](O)[C@H]8O)[C@H]7O[C@@H]7O[C@H](CO)[C@H](O)[C@H](O[C@@H]8O[C@H](CO)[C@@H](O)[C@H](O)[C@H]8O)[C@H]7O)[C@H](O)[C@H]6O)[C@H](O)C[C@]5(C)[C@H]4CC[C@]3(C)[C@H]1[C@@H]2C [digitonin]
Lysis of parasite membranes by the positive control [1]: 100%

CC[C@H](C)[C@@H]1NC(=O)[C@H](Cc2c[nH]cn2)NC(=O)[C@H](Cc2ccc(O)cc2)NC(=O)[C@H](C(C)C)NC(=O)[C@H](CCCNC(=N)N)NC(=O)[C@H](CC(=O)O)NC(=O)[C@@H](N)CSSC[C@@H](C(=O)O)NC(=O)[C@H](Cc2ccccc2)NC(=O)[C@@H]2CCCN2C1=O [Peptide 2] (H-CDRVYHIPFC-OH; disulfide 1-10)
Hemolytic effect (in words) (human red blood cells): did not present hemolytic effects
Hemolysis of red blood cells (human red blood cells): < 6%
Contractile response / vasoconstriction (in words) (stomach fundus): complete suppression of vasoconstriction

CVIPFC (disulfide 1-6 (inferred)) [Peptide 8]
Antiplasmodial activity vs P. falciparum (new ring formation%) (Plasmodium falciparum [2]): 3.5%

YHPF [short linear Ang II derivative of Silva et al]
Antiplasmodial activity against P. gallinaceum sporozoites, linear peptides [3]: 89%
Activity against erythrocyte invasion by P. falciparum, linear peptides (Plasmodium falciparum [4]): ~ 50%

VIPF [short linear Ang II derivative of Silva et al]
Antiplasmodial activity against P. gallinaceum sporozoites, linear peptides [3]: 94%
Activity against erythrocyte invasion by P. falciparum, linear peptides (Plasmodium falciparum [4]): ~ 50%

CDRVCYIHPF (disulfide 1-5 (inferred)) [S-S restricted Ang II analog of Torres et al]
Antiplasmodial activity vs sporozoites of P. gallinaceum, S-S restricted analog ([3]; ref 7 (Torres et al.)): 76%

DDRKVYIHPF [VC-4, linear Ang II analog of Maciel et al]
Biological activity (antiplasmodial) (Plasmodium): 64%

EDRKVYIHPF (also: sidechain bridge or staple (positions not given here)) [lactam bridge Ang II analog of Torres et al]
Antiplasmodial activity relative to Ang II (in words) (Plasmodium): maintained the antiplasmodial activity of Ang II

DRVYHIPF [linear Ang II derivative of Silva et al., linear counterpart of peptide 2]
Antiplasmodial activity against P. gallinaceum sporozoites, linear peptides [3]: 94%

DRDVKYIHPF (also: sidechain bridge or staple (positions not given here)) [VC-5, restricted (lactam bridge) Ang II analog of Maciel et al]
Biological activity (antiplasmodial) (Plasmodium): 78%

CC[C@H](C)[C@@H]1NC(=O)[C@H](Cc2ccc(O)cc2)NC(=O)[C@H](C(C)C)NC(=O)[C@H](CCCNC(=N)N)NC(=O)[C@H](CC(=O)O)NC(=O)[C@@H](N)CSSC[C@@H](C(=O)O)NC(=O)[C@H](Cc2ccccc2)NC(=O)[C@@H]2CCCN2C(=O)[C@H](Cc2c[nH]cn2)NC1=O [Peptide 1] (H-CDRVYIHPFC-OH; disulfide 1-10)
Hemolytic effect (in words) (human red blood cells): did not present hemolytic effects
Hemolysis of red blood cells (human red blood cells): < 6%
Contractile response / vasoconstriction (in words) (stomach fundus): complete suppression of vasoconstriction

EDRVOYIHPF (sidechain bridge or staple) [lactam bridge Ang II analog of Torres et al]
Antiplasmodial activity relative to Ang II (in words) (Plasmodium): maintained the antiplasmodial activity of Ang II
